# Data: ChEMBL document CHEMBL1795246, “Phenyl isoxazole voltage-gated sodium channel blockers: structure and activity relationship” (Bioorg Med Chem Lett, 2011)
# Legend:
# [1] = molecular target: Sodium channel protein type 9 subunit alpha (Homo sapiens, UniProt Q15858); assay: Inhibition of Nav1.7 by cell based whole-cell voltage clamp electrophysiology assay
# [2] = molecular target: Sodium channel protein type 5 subunit alpha (Homo sapiens, UniProt Q14524); assay: Inhibition of Nav1.5 by cell based whole-cell voltage clamp electrophysiology assay
# Sodium channel protein type 5 subunit alpha, sequence (Q14524 whole entry): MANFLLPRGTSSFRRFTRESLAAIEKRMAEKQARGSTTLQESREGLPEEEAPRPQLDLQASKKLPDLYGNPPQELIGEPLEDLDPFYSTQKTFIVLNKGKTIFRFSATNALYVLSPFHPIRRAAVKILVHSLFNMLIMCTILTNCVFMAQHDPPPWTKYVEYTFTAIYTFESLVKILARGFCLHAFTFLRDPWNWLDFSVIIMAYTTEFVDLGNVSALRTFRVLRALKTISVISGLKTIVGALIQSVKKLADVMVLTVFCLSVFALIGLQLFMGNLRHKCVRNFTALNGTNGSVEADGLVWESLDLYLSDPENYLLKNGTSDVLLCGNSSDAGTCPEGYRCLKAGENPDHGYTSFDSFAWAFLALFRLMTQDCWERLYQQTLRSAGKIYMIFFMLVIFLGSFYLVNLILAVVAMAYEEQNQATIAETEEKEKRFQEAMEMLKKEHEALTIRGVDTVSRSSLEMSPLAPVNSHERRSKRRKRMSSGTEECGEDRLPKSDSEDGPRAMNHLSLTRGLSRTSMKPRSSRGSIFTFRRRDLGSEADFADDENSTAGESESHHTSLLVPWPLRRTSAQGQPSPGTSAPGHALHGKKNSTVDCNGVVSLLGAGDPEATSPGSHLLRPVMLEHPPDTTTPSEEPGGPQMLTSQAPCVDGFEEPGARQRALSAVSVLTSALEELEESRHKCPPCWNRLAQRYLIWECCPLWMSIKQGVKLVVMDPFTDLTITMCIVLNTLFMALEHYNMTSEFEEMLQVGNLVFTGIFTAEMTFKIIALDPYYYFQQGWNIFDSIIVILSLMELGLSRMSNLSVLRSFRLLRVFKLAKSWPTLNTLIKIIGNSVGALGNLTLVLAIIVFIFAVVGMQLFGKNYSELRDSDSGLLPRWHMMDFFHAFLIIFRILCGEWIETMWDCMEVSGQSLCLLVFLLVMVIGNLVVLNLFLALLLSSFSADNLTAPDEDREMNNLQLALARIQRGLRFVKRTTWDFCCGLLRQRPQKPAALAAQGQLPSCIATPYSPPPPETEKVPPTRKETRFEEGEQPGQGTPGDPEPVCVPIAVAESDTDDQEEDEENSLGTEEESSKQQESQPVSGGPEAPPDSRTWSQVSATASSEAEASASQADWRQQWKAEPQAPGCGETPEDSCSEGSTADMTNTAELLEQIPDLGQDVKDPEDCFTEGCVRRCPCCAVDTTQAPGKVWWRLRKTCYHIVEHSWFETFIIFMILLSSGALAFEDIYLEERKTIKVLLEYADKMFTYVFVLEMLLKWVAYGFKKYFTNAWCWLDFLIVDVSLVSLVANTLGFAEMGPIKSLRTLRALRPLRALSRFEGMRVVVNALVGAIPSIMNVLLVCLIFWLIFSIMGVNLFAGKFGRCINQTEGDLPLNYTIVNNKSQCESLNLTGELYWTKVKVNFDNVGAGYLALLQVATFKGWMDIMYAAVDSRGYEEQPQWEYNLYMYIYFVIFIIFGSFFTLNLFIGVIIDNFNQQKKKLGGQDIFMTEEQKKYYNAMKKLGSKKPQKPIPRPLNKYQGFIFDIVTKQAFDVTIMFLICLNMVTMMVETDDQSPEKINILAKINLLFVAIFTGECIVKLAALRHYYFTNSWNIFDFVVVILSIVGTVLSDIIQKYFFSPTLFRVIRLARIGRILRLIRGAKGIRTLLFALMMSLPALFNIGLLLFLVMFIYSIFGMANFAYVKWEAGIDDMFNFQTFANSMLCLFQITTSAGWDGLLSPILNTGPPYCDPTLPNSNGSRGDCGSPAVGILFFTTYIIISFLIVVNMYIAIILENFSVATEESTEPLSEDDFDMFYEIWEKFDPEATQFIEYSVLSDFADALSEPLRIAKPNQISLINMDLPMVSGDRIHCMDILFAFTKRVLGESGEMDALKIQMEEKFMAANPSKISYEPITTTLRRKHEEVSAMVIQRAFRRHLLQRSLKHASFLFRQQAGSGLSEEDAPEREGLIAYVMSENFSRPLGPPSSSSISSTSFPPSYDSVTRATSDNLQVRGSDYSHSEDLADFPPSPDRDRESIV
# [3] = Solubility of the compound; assay type: physicochemical
# [4] = Cmax in Sprague-Dawley rat at 10 umol/kg, po; assay type: ADME, organism-based; parameters: dose 10 umol/kg, route oral; details: in vivo
# [5] = Terminal half life in Sprague-Dawley rat at 3 umol/kg, iv; assay type: ADME, organism-based; details: in vivo, read-out: beta t1/2 (converted)
# [6] = Oral bioavailability in Sprague-Dawley rat at 10 umol/kg; assay type: ADME, organism-based; details: in vivo
# [7] = Tmax in Sprague-Dawley rat at 10 umol/kg, po; assay type: ADME, organism-based; details: in vivo
# Rattus norvegicus [8] = assay: Dose normalized AUC in Sprague-Dawley rat at 10 umol/kg, po; assay type: ADME, organism-based; details: in vivo
# [9] = molecular target: Voltage-gated inwardly rectifying potassium channel KCNH2 (Homo sapiens, UniProt Q12809); assay: Inhibition of human ERG
# Voltage-gated inwardly rectifying potassium channel KCNH2, sequence (Q12809 whole entry): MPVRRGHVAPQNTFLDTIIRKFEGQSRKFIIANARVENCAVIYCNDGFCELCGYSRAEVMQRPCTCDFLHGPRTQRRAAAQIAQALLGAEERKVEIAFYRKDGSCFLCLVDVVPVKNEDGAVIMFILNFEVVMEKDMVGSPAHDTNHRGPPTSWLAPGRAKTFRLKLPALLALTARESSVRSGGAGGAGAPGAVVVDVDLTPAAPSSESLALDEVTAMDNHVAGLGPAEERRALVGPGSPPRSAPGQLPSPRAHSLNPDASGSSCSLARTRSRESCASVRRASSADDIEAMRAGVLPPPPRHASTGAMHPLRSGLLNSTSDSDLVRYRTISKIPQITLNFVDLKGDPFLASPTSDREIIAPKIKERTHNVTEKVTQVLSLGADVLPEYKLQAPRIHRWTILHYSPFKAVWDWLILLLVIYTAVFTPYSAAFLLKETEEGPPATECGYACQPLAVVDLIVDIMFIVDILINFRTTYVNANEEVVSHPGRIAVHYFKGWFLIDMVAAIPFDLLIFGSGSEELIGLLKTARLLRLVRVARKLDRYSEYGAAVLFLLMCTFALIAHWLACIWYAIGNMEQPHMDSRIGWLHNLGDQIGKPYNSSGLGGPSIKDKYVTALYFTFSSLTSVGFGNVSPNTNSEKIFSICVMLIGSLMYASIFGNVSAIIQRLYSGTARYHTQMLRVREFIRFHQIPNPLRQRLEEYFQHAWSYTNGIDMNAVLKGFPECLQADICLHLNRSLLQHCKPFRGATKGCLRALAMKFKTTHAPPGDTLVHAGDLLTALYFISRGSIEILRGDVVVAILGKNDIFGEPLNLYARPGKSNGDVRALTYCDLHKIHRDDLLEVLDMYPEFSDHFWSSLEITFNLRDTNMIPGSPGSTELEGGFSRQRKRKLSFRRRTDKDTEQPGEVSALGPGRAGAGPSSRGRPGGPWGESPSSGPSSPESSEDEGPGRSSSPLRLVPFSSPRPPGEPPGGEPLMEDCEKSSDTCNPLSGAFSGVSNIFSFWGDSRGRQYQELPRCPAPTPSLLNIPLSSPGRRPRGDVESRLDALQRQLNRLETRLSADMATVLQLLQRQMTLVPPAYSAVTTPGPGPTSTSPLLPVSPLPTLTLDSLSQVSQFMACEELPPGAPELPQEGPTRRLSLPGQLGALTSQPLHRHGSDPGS
# [10] = Volume of distribution at steady state in Sprague-Dawley rat at 3 umol/kg, iv; assay type: ADME, organism-based; details: in vivo, read-out: Vdss
# Rattus norvegicus [11] = assay: Dose normalized AUC in Sprague-Dawley rat at 3 umol/kg, iv; assay type: ADME, organism-based; details: in vivo
# [12] = Clearance in Sprague-Dawley rat at 3 umol/kg, iv; assay type: ADME, organism-based; details: in vivo
# [13] = Intrinsic clearance in human liver microsomes; assay type: ADME, Microsome
# [14] = Half life in Sprague-Dawley rat at 10 umol/kg, po; assay type: ADME, organism-based; details: in vivo
# [15] = Intrinsic clearance in rat liver microsomes; assay type: ADME, Microsome
# Sodium channel protein type 9 subunit alpha, sequence (Q15858 whole entry): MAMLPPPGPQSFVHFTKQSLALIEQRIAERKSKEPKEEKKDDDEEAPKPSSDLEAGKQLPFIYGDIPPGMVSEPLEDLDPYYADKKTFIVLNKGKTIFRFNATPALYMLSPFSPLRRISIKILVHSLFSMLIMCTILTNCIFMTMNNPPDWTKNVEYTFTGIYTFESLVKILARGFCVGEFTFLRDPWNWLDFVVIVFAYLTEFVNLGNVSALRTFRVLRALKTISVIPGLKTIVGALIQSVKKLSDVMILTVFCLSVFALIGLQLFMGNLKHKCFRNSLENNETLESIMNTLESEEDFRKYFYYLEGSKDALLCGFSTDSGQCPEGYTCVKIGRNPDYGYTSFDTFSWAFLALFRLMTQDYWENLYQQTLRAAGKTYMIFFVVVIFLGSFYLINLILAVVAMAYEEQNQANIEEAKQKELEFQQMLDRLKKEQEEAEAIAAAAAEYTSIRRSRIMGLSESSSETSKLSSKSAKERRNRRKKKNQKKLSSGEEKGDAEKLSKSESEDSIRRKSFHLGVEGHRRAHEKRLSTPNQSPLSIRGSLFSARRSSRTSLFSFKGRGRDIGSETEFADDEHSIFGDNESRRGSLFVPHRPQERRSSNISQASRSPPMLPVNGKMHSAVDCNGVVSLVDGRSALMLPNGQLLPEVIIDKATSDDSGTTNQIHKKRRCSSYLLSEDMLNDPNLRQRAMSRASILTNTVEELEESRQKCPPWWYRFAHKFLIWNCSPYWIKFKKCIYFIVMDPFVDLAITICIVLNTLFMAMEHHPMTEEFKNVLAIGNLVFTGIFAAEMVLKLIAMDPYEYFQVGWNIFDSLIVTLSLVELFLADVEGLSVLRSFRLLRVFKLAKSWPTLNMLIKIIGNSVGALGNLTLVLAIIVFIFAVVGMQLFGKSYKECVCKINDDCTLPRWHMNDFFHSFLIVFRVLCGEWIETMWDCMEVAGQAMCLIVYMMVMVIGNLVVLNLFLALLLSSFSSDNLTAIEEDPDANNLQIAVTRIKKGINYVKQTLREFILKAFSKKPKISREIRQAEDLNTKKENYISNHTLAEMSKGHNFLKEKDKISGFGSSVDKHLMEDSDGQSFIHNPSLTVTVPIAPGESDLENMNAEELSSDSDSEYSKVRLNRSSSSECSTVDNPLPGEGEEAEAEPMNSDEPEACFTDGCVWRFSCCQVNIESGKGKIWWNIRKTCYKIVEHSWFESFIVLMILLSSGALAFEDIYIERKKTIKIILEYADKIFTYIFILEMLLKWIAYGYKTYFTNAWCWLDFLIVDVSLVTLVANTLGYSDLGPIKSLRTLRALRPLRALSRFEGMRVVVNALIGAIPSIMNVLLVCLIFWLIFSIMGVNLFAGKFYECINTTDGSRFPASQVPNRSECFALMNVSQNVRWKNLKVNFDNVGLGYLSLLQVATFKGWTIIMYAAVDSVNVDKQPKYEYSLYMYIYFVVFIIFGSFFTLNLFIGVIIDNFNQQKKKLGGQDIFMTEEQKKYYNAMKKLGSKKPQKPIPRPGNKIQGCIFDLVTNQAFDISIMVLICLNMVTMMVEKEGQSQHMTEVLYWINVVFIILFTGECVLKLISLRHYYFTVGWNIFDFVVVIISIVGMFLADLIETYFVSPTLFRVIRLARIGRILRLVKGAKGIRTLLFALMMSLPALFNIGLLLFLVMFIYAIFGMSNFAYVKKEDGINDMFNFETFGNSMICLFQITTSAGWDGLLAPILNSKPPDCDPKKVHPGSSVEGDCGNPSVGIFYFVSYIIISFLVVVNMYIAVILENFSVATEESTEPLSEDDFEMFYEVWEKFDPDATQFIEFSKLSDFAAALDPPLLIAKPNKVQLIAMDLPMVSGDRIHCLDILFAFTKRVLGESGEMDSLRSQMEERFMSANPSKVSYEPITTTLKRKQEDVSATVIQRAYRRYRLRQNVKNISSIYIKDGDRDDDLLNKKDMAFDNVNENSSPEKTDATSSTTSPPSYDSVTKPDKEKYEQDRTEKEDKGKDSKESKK
Compound,IC50 [1],IC50 [2],other results
O=C(Nc1conc1-c1c(Cl)cccc1Cl)OCc1c(F)cccc1Cl,12600 nM,–,–
Cc1onc(-c2c(Cl)cccc2Cl)c1NC(=O)OCc1ccc(OC2CCCC2)nc1,28.8 nM,1.35 µM,–
Cc1onc(-c2c(Cl)cccc2Cl)c1NC(=O)OCc1cccc(N(C)C)c1,151 nM,> 25.7 µM,–
COCc1onc(-c2c(Cl)cccc2Cl)c1NC(=O)OCc1ccccc1Cl,331 nM,> 28.2 µM,–
Cc1cccc(C)c1-c1noc(C)c1CC(=O)NCc1ccc(OCC(F)(F)F)nc1,1230 nM,> 33.1 µM,–
Cc1onc(-c2c(Cl)cccc2Cl)c1NC(=O)OCc1c(F)cccc1Cl,28.2 nM,5.5 µM,solubility [3]: < 1 µM; Cmax [4]: 7 nM; half-life [5]: 84 min; bioavailability [6]: 0.3%; Tmax [7]: 19.8 min; AUC/dose (Rattus norvegicus [8]): 0.001 kg·h/L; IC50 [9]: > 26.3 µM; Vd [10]: 3 L/kg; AUC/dose (Rattus norvegicus [11]): 0.73 kg·h/L; clearance [12]: 45 mL/min/kg
Cc1onc(-c2c(Cl)cccc2Cl)c1CC(=O)NCc1ccc(OC(C)C)nc1,126 nM,4.68 µM,–
Cc1cccc(C)c1-c1noc(C)c1NC(=O)NCc1ccc(-n2cccn2)cc1,1170 nM,> 33.1 µM,–
Cc1onc(-c2ccccc2Cl)c1N(C)C(=O)NCc1ccc(OC2CCOCC2)nc1,3630 nM,> 33.1 µM,–
Cc1cccc(C)c1-c1noc(C)c1N(C)C(=O)NCc1ccc(OC2CCOCC2)nc1,4470 nM,> 33.1 µM,–
Cc1cccc(C)c1-c1noc(C)c1NC(=O)NCc1c(F)cccc1Cl,38 nM,> 10.5 µM,–
CCc1onc(-c2c(Cl)cccc2Cl)c1NC(=O)OCc1c(F)cccc1Cl,9.33 nM,7.24 µM,–
Cc1onc(-c2c(Cl)cccc2Cl)c1CC(=O)NCc1ccc(OCC(F)(F)F)nc1,178 nM,> 33.1 µM,microsomal CLint [13]: 116 µL/min/mg; solubility [3]: 36 µM; Cmax [4]: 400 nM; half-life [5]: 36 min; bioavailability [6]: 19%; Tmax [7]: 18 min; AUC/dose (Rattus norvegicus [8]): 0.12 kg·h/L; half-life [14]: 228 min; IC50 [9]: > 26.3 µM; Vd [10]: 1.6 L/kg; AUC/dose (Rattus norvegicus [11]): 0.46 kg·h/L; clearance [12]: 36 mL/min/kg; microsomal CLint [15]: 64 µL/min/mg
Cc1onc(-c2c(Cl)cccc2Cl)c1N(C)C(=O)OCc1ccc(OC(C)C)nc1,224 nM,> 28.8 µM,–
Cc1onc(-c2c(Cl)cncc2Cl)c1NC(=O)NCc1ccc(OC(C)C)nc1,12600 nM,> 33.1 µM,–
Cc1onc(-c2c(F)cccc2Cl)c1NC(=O)OCc1c(F)cccc1Cl,72.4 nM,> 15.8 µM,–
Cc1onc(-c2c(Cl)cccc2Cl)c1N(C)C(=O)OCc1c(F)cccc1Cl,302 nM,> 33.1 µM,–
Cc1cccc(C)c1-c1noc(C)c1NC(=O)NCc1ccc(OC(C)C)nc1,209 nM,20 µM,–
Cc1onc(-c2c(Cl)cccc2Cl)c1CC(=O)NCc1ccc(-n2cccn2)cc1,851 nM,> 33.1 µM,–
Cc1onc(-c2c(Cl)cccc2Cl)c1NC(=O)NCc1c(F)cccc1Cl,162 nM,8.51 µM,–
Cc1onc(-c2c(Cl)cccc2Cl)c1NC(=O)NCc1ccc(-n2cccn2)cc1,263 nM,> 33.1 µM,–
Cc1cccc(C)c1-c1noc(C)c1CC(=O)NCc1cccc(OCCOCC(F)(F)F)n1,58.9 nM,12 µM,–
Cc1onc(-c2c(Cl)cccc2Cl)c1N(C)C(=O)NCc1ccc(OC2CCOCC2)nc1,170 nM,5.89 µM,–
Cc1onc(-c2c(Cl)cccc2Cl)c1NC(=O)OCc1ccc(OC(C)C)nc1,22.9 nM,8.71 µM,–
Cc1onc(-c2c(Cl)cccc2Cl)c1NC(=O)OCc1cc(Cl)ccc1Cl,138 nM,2.63 µM,–
Cc1cccc(C)c1-c1noc(C)c1NC(=O)OCc1c(F)cccc1Cl,10.5 nM,7.76 µM,–
Cc1onc(-c2c(Cl)cccc2Cl)c1NC(=O)OCc1ccccc1Cl,24 nM,8.71 µM,–
